In patent publication US12421254B2, “KRAS modulators and uses thereof” (Quanta Therapeutics, Inc., priority 2023, dated 2025):

Tests used:
NRAS/RAF1 = target: T1, NRAS/RAF1 (Homo sapiens, UniProt P01111); assay: Protein-protein interaction (PPI) HTRF assay w.t. NRAS/RAF1; assay type: binding; conditions: Table 3; wt NRAS/RAF1
T1 construct: (1-169); His6-SUMO (N, cleaved yes)
Protocol: When RAS proteins are in the active GTP-bound conformation, they bind the effector protein RAF1 at the N-terminus Ras-binding domain (RBD, residues 52-131) (Tran, et al., 2021). Homogenous time resolved fluorescence (HTRF) was used to monitor the interaction between wt or mutant KRAS and RAF1 or wt NRAS and RAF1. Compounds were assayed in the presence of KRAS G12D/V and RAF1 versus wt KRAS to assess activity against mutant and w.t. KRAS. Similarly, compounds were then assayed in the presence of w.t. NRAS and RAF1 to assess RAS isoform selectivity. In all assay formats, His-tagged RAF1 protein was incubated with the HTRF donor, anti-6His Tb Cryptate gold (Cisbio 61DB10RDF), and biotinylated RAS proteins were incubated with the HTRF acceptor, streptavidin-d2 (CisBio 610SADLA). The intensity of the fluorescence signal emitted is proportional to binding between the two proteins. The donor solution was prepared by mixing 16 nM His-tagged RAF1 in protein dilution buffer with 1:100 anti-6His Tb cryptate in PPI-Terbium detection buffer. 16 nM biotinylated RAS protein was diluted into protein dilution buffer (50 mM Tris-HCl pH 7.5, 150 mM NaCl, 0.1 mM MgCl2, 1 mM TCEP, 0.005% Tween20) and mixed with 1:2000 Streptavidin-d2 diluted in PPI-Terbium detection buffer (CisBio 61DB10RDF). 50× compound in DMSO was mixed with 16 nM KRAS-acceptor solution and incubated for 30 minutes at room temperature. After compound pre-incubation with KRAS, the RAF1 donor solution was added to the KRAS-acceptor solution and incubated for 1 hour at room temperature. The fluorescence signal emitted was monitored at 665 nm and 615 nm using an Envision multimode plate reader. The HTRF ratio (665/615) was calculated and normalized to 0% inhibition in the absence of compound and 100% inhibition in the presence of untagged RAF1 protein. PPI KRAS G12D/RAF1, KRAS G12V/RAF1, w.t. KRAS/RAF1 and NRAS/RAF1 IC50 (uM) values of selected compounds are depicted in Table 3 and Table 4 with compounds having a value <0.1 uM as ++++; ≥0.1 uM to 1 uM as +++; ≥1 uM to 10 uM as ++; ≥10 uM to 100 uM as +; and ≥100 uM as NA.

[1] = test system: phospho-ERK in SW620 (KRAS-G12V) cells; assay: pERK In Cell Western (ICW) assay (Method B), SW620; assay type: cell-based; conditions: Homo sapiens, SW-620, 3 h, Table 4
Method in brief: (§1)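 SW620 (KRAS-G12V), GP2D (KRAS-G12D) and AGS cells, seeded overnight, were exposed to compounds (½-log, 9-point) for 3 h at 37°C, then fixed and stained for phospho-ERK. Infrared imaging; pERK normalized to DRAQ5 DNA stain, expressed as percent of blank control, IC50 by 4-parameter fit.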

phospho-ERK in AGS cells = assay: pERK In Cell Western (ICW) assay (Method B), AGS; assay type: cell-based; conditions: Homo sapiens, Table 2, 3 hours
Method in brief: as §1

T1 sequence (P01111 with tags, fused parts or gaps): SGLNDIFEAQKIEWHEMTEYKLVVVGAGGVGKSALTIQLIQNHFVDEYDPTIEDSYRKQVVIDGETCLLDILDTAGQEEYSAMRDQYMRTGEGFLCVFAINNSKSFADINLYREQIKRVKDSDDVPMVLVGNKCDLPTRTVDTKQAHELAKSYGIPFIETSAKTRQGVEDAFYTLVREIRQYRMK

Structure (SMILES): N#Cc1c(N)sc2c1C1(CC2)CN(c2nc(OCC3(CN4CCOCC4)CC3)nc(N3CCCC4(C3)NC(=O)NC4=O)n2)C1 (stereo not shown) [Compound 7, 2-amino-1′-[4-(2,4-dioxo-1,3,9-triazaspiro[4.5]decan-9-yl)-6-[[1-(morpholinomethyl)cyclopropyl]methoxy]-1,3,5-triazin-2-yl]spiro[5,6-dihydrocyclopenta[b]thiophene-4,3′-azetidine]-3-carbonitrile]
- IC50 (NRAS/RAF1): > 100 µM
- IC50 [1]: 1000 to 20000 nM

Structure (SMILES): N#Cc1c(N)sc2c1C1(CCC2)CN(c2nc(OCC3(CN4CCOCC4)CC3)nc(N3C[C@H]4CC[C@@H](C3)N4)n2)C1 [Compound 3, 2-amino-1′-[4-[(1R,5S)-3,8-diazabicyclo[3.2.1]octan-3-yl]-6-[[1-(morpholinomethyl)cyclopropyl]methoxy]-1,3,5-triazin-2-yl]spiro[6,7-dihydro-5H-benzothiophene-4,3′-azetidine]-3-carbonitrile]
- IC50 (NRAS/RAF1): > 100 µM
- IC50 (phospho-ERK in AGS cells): 0.1 to 1 µM

Structure (SMILES): C[C@@]1(O)CCCN(c2nc(OC[C@@]34CCCN3C[C@H](F)C4)nc(N3CC4(CCc5sc(N)c(C#N)c54)C3)n2)C1 [Compound 10, 2-amino-1′-[4-[[(2R,8S)-2-fluoro-1,2,3,5,6,7-hexahydropyrrolizin-8-yl]methoxy]-6-[(3R)-3-hydroxy-3-methyl-1-piperidyl]-1,3,5-triazin-2-yl]spiro[5,6-dihydrocyclopenta[b]thiophene-4,3′-azetidine]-3-carbonitrile]
- IC50 (NRAS/RAF1): > 100 µM
- IC50 [1]: 100 to 1000 nM
- IC50 (phospho-ERK in AGS cells): 0.1 to 1 µM

Structure (SMILES): N#Cc1c(N)sc2c1C1(CC2)CN(c2nc(OCC3(CN4CCOCC4)CC3)nc(N3C[C@H]4CC[C@@H](C3)N4)n2)C1 [Compound 2, 2-amino-1′-[4-[[1-(morpholinomethyl)cyclopropyl]methoxy]-6-[(1R,5S)-3,8-diazabicyclo[3.2.1]octan-3-yl]-1,3,5-triazin-2-yl]spiro[5,6-dihydrocyclopenta[b]thiophene-4,3′-azetidine]-3-carbonitrile]
- IC50 (NRAS/RAF1): > 100 µM
- IC50 (phospho-ERK in AGS cells): 0.1 to 1 µM

Structure (SMILES): N#Cc1c(N)sc2c1C1(CC2)CN(c2nc(OCC34CCCN3CC(F)C4)nc(N3CC4CCC(C3)N4)n2)C1 [Compound 1, 2-amino-1′-[4-(3,8-diazabicyclo[3.2.1]octan-3-yl)-6-[[(2R,8S)-2-fluoro-1,2,3,5,6,7-hexahydropyrrolizin-8-yl]methoxy]-1,3,5-triazin-2-yl]spiro[5,6-dihydrocyclopenta[b]thiophene-4,3′-azetidine]-3-carbonitrile]
- IC50 (NRAS/RAF1): > 100 µM
- IC50 (phospho-ERK in AGS cells): 0.1 to 1 µM

Structure (SMILES): N#Cc1c(N)sc2c1C1(CC2)CN(c2nc(OC[C@@]34CCCN3C[C@H](F)C4)nc(N3CCCC(C#N)C3)n2)C1 (stereo partly drawn) [Compound 13, 2-amino-1′-[4-(3-cyano-1-piperidyl)-6-[[(2R,8S)-2-fluoro-1,2,3,5,6,7-hexahydropyrrolizin-8-yl]methoxy]-1,3,5-triazin-2-yl]spiro[5,6-dihydrocyclopenta[b]thiophene-4,3′-azetidine]-3-carbonitrile]
- IC50 [1]: 100 to 1000 nM
- IC50 (phospho-ERK in AGS cells): 1 to 10 µM
